For one molecule, IC50 results are on record in BindingDB's records for doi:10.1021/jm000956k (Glaxowellcome, 2001).

Assay [1] addresses 5-hydroxytryptamine receptor 2C (Cavia porcellus). The assay can be described thus: Binding affinity against guinea pig cortex 5-HT2C receptor in the presence of [3H]mesulergine.
The target in assay [2] is 5-hydroxytryptamine receptor 1D (Bos taurus). The experiment in a line: Binding affinity against calf caudate 5-hydroxytryptamine 1D receptor.
The target of assay [3] is 5-hydroxytryptamine receptor 2A (Oryctolagus cuniculus). The experiment in a line: Binding affinity against rabbit aorta 5-HT2A receptor.

What is called IC50 is the point on the concentration scale where inhibition reaches its midpoint. In the case of `CN(C)[C@H]1C[C@H](c2c[nH]c3ccc(CC4COC(=O)N4)cc32)C1` (stereo partly drawn), the IC50 was above 10 µM in assay [1], 0.089 µM in assay [2] and above 10 µM in assay [3].
